Reference: ChEMBL document CHEMBL1157155, “Bioactive alkenylphenols from Piper obliquum” (Bioorg Med Chem, 2008)
≈ marks a conversion by molar mass, not a printed value. Calls of active or inactive are those of the source. No cut-off for these calls is given here.

Tests used:
Jurkat [1] = experiment: (§1) Effect on NF-kappaB expressed in Jurkat 5.1 cells assessed as inhibition of TNF-alpha-induced HIV1-LTR transactivation preincubated for 15 mins by luciferase gene reporter assay; type: cell-based
Escherichia coli = experiment: Antibacterial activity against Escherichia coli after 24 hrs by broth microdilution method; type: functional
[2] = system: Staphylococcus epidermidis; experiment: Antibacterial activity against Staphylococcus epidermis after 24 hrs by broth microdilution method; type: functional
Jurkat [3] = experiment: Effect on NF-kappaB expressed in Jurkat 5.1 cells assessed as inhibition of TNF-alpha-induced IkappaBalpha degradation at 10 uM preincubated for 15 mins by Western blot; type: cell-based
[4] = as §1; type: cell-based
[5] = Effect on NF-kappaB expressed in HeLa-Tet-On cells assessed as inhibition of doxycyclin-induced HIV1-LTR transactivation preincubated for 15 mins by luciferase gene reporter assay; type: cell-based
Jurkat [6] = experiment: Effect on NF-kappaB expressed in Jurkat 5.1 cells assessed as inhibition of TNF-alpha-induced IkappaBalpha phosphorylation at 10 uM preincubated for 15 mins by Western blot; type: cell-based

SMILES	MIC (Escherichia coli) [µg/mL]	MIC [2] [µg/mL]	IC50 [4] [µM]	Activity (Jurkat [1])	Activity (Jurkat [3])	Activity [5]	Activity (Jurkat [6])
COc1ccc(/C=C/C(=O)c2c(O)cc(OC)c(OC)c2OC)cc1OC	10 (≈ 26.7 µM)	10 (≈ 26.7 µM)		inactive			
CC(C)=CCC/C(C)=C/CC/C(C)=C/Cc1cc(C(=O)O)ccc1O				inactive			
CC1(C)S[C@@H]2[C@H](NC(=O)[C@H](N)c3ccccc3)C(=O)N2[C@H]1C(=O)O [AMPICILLIN]	5 (≈ 14.3 µM)	1 (≈ 2.86 µM)					

The next lines start with results.

MIC (Escherichia coli) [µg/mL]	MIC [2] [µg/mL]	IC50 [4] [µM]	SMILES	Activity (Jurkat [1])	Activity (Jurkat [3])	Activity [5]	Activity (Jurkat [6])
100 (≈ 281 µM)	50 (≈ 140 µM)		CC(C)=CCC/C(C)=C/CCC1(C)CC(=O)c2cc(C(=O)O)ccc2O1 (configuration not stated)	inactive			
5 (≈ 17.3 µM)	2.5 (≈ 8.67 µM)		CCCCCCCCC/C=C/CCCc1ccc(O)cc1 [OBLIQUOL A]				
5 (≈ 16.4 µM)	5 (≈ 16.4 µM)	5	CCCCCCCCC/C=C/CCCc1ccc(O)c(O)c1 [OBLIQUOL B]		Active	inactive	Active
